Results: patent publication US20230059136A1, “THE COMPOUNDS AND COMPOSITIONS FOR TREATING CONDITIONS ASSOCIATED WITH NLRP ACTIVITY” (Novartis AG, priority 2018, published 2023)

These molecules were tested on IL-1β production in PMA-differentiated THP-1 cells (assay: IL-1β production in PMA-differentiated THP-1 cells stimulated with gramicidin (hTHP-1 assay containing 2% fetal bovine serum)). Conditions: Homo sapiens, THP-1, Table B1; 2% fetal bovine serum; cells printed as numeric bound; read-out: hTHP-1 IC50 (Average IC50 of compounds in hTHP-1 assay).
Assay type: cell-based, human
In short: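 THP-1 cells were differentiated with PMA 20 ng/ml for 16-18 h, then plated at 50,000 cells/well in RPMI with 2% FBS. They were preincubated 1 h with compound (100–0.0017 μM final, 0.37% DMSO), then stimulated with gramicidin 5 μM for 2 h. Supernatant IL-1β was measured by HTRF.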

IC50 [µM] | SMILES
> 30 | CC(C)(O)c1ncc(S(N)(=O)=NC(=O)Cc2cc3c(c4c2CCC4)CCC3)s1 (centres unmarked) [Example 242, N-(amino(2-(2-hydroxypropan-2-yl)thiazol-5-yl)(oxo)-λ^6-sulfaneylidene)-2-(1,2,3,6,7,8-hexahydro-as-indacen-4-yl)acetamide]

Same assay, conditions: Homo sapiens, THP-1, Table B1; 2% fetal bovine serum; class symbols; read-out: hTHP-1 IC50 (Average IC50 of compounds in hTHP-1 assay)

IC50 [µM] | SMILES
5 to 30 | CC(C)c1cc(CCC2CCCCC2)cc(C(C)C)c1CC(=O)N=S(N)(=O)c1cc(C(C)(C)O)n(-c2ccccc2)n1 (centres unmarked) [Example 228, N-(amino(5-(2-hydroxypropan-2-yl)-1-phenyl-1H-pyrazol-3-yl)(oxo)-λ^6-sulfaneylidene)-2-(4-(2-cyclohexylethyl)-2,6-diisopropylphenyl)acetamide]
1 to 5 | CC(C)c1cc(C#CC2CCOCC2)cc(C(C)C)c1CC(=O)N=S(N)(=O)c1cc(C(C)(C)O)n(-c2ccccc2)n1 (centres unmarked) [Example 229, N-(amino(5-(2-hydroxypropan-2-yl)-1-phenyl-1H-pyrazol-3-yl)(oxo)-λ^6-sulfaneylidene)-2-(2,6-diisopropyl-4-((tetrahydro-2H-pyran-4-yl)ethynyl)phenyl)acetamide]
1 to 5 | CC(C)c1cc(C(F)F)cc(C(C)C)c1CC(=O)N=S(N)(=O)c1ccc(CN(C)C)nc1 (centres unmarked) [Example 230, N-(amino(6-((dimethylamino)methyl)pyridin-3-yl)(oxo)-λ^6-sulfaneylidene)-2-(4-(difluoromethyl)-2,6-diisopropylphenyl)acetamide]
0.2 to 1 | CC(C)c1cc2c(c(C(C)C)c1CC(=O)N=[S@@](N)(=O)c1cnc(C(C)(C)O)s1)OC(F)(F)O2 [Example 231]
5 to 30 | CC(C)c1cc2c(cnn2C)c(C(C)C)c1CC(=O)N=[S@@](N)(=O)c1cnc(C(C)(C)O)s1 [Example 232, (R)-N-(amino(2-(2-hydroxypropan-2-yl)thiazol-5-yl)(oxo)-λ^6-sulfaneylidene)-2-(4,6-diisopropyl-1-methyl-1H-indazol-5-yl)acetamide]
5 to 30 | Cc1c2c(cc(C3CC3)c1CC(=O)N=[S@@](N)(=O)c1cnc(C(C)(C)O)s1)CCC2 [Example 233, (R)-N-(amino(2-(2-hydroxypropan-2-yl)thiazol-5-yl)(oxo)-λ^6-sulfaneylidene)-2-(6-cyclopropyl-4-methyl-2,3-dihydro-1H-inden-5-yl)acetamide]
1 to 5 | COCc1cc(C(C)C)c(CC(=O)N=S(N)(=O)c2ncc(C(C)(C)O)s2)c(C(C)C)n1 (centres unmarked) [Example 236, N-(amino(5-(2-hydroxypropan-2-yl)thiazol-2-yl)(oxo)-λ^6-sulfaneylidene)-2-(2,4-diisopropyl-6-(methoxymethyl)pyridin-3-yl)acetamide]
5 to 30 | CC(C)c1cc(C#N)nc(C(C)C)c1CC(=O)NS(=N)(=O)c1sc(C(C)(C)O)nc1CO (centres unmarked) [Example 237, 2-(6-cyano-2,4-diisopropylpyridin-3-yl)-N-(4-(hydroxymethyl)-2-(2-hydroxypropan-2-yl)thiazole-5-sulfonimidoyl)acetamide]
1 to 5 | CC(C)c1cc(C#N)c(F)c(C(C)C)c1CC(=O)N=S(N)(=O)c1cnc(C(C)(O)CO)s1 (centres unmarked) [Example 238, N-(amino(2-(1,2-dihydroxypropan-2-yl)thiazol-5-yl)(oxo)-λ^6-sulfaneylidene)-2-(4-cyano-3-fluoro-2,6-diisopropylphenyl) acetamide]
1 to 5 | CC(C)c1cc(C#N)c(F)c(C(C)C)c1CC(=O)N=S(N)(=O)c1cc(C(C)(C)O)n(-c2ccccc2)n1 (centres unmarked) [Example 239, N-(amino(5-(2-hydroxypropan-2-yl)-1-phenyl-1H-pyrazol-3-yl)(oxo)-λ^6-sulfaneylidene)-2-(4-cyano-3-fluoro-2,6-diisopropylphenyl)acetamide]
5 to 30 | CC(C)c1cc(C#CC2CCCC2)cc(C(C)C)c1CC(=O)N=S(N)(=O)c1cc(C(C)(C)O)c(-c2ccccc2)s1 (centres unmarked) [Example 240, N-(amino(4-(2-hydroxypropan-2-yl)-5-phenylthiophen-2-yl)(oxo)-λ^6-sulfaneylidene)-2-(4-(cyclopentylethynyl)-2,6-diisopropylphenyl)acetamide]
5 to 30 | CC(C)c1cc(COC2CCCC2)cc(C(C)C)c1CC(=O)N=S(N)(=O)c1cc(C(C)(C)O)n(-c2ccc(F)cc2)n1 (centres unmarked) [Example 241, N-(amino(1-(4-fluorophenyl)-5-(2-hydroxypropan-2-yl)-1H-pyrazol-3-yl)(oxo)-λ^6-sulfaneylidene)-2-(4-((cyclopentyloxy)methyl)-2,6-diisopropylphenyl)acetamide]
5 to 30 | CC(C)c1cc2c(c(C(C)C)c1CC(=O)N=S(N)(=O)c1ccn(C(F)F)n1)COC2 (centres unmarked) [Example 243, N-(amino(1-(difluoromethyl)-1H-pyrazol-3-yl)(oxo)-λ^6-sulfaneylidene)-2-(4,6-diisopropyl-1,3-dihydroisobenzofuran-5-yl) acetamide]
1 to 5 | CCc1c2c(cc(C(C)C)c1CC(=O)N=S(N)(=O)c1cc(C(C)(C)O)cs1)COC2 (centres unmarked) [Example 244, N-(amino (4-(2-hydroxypropan-2-yl)thiophen-2-yl)(oxo)-λ^6-sulfaneylidene)-2-(4-ethyl-6-isopropyl-1,3-dihydroisobenzofuran-5-yl) acetamide]
1 to 5 | CCc1cc2c(c(C(C)C)c1CC(=O)N=S(N)(=O)c1cc(C(C)(C)O)cs1)COC2 (centres unmarked) [Example 245, N-(amino (4-(2-hydroxypropan-2-yl)thiophen-2-yl)(oxo)-λ^6-sulfaneylidene)-2-(6-ethyl-4-isopropyl-1,3-dihydroisobenzofuran-5-yl) acetamide]
0.04 to 0.2 | CC(C)c1cc2c(c(C(C)C)c1CC(=O)N=S(N)(=O)c1sc(C(C)(C)O)cc1F)COC2 (centres unmarked) [Example 246, N-(amino(3-fluoro-5-(2-hydroxypropan-2-yl)thiophen-2-yl)(oxo)-λ^6-sulfaneylidene)-2-(4,6-diisopropyl-1,3-dihydroisobenzofuran-5-yl) acetamide]
1 to 5 | CC(C)c1cc(C#N)c(F)c(C(C)C)c1CC(=O)N=S(N)(=O)c1cc(C(C)(O)CO)n(-c2ccccc2)n1 (centres unmarked) [Example 247, N-(amino(5-(1,2-dihydroxypropan-2-yl)-1-phenyl-1H-pyrazol-3-yl)(oxo)-λ^6-sulfaneylidene)-2-(4-cyano-3-fluoro-2,6-diisopropylphenyl)acetamide]
1 to 5 | CC(C)c1cc(C(F)F)nc(C(C)C)c1CC(=O)N=S(N)(=O)c1sc(CN(C)C)cc1F (centres unmarked) [Example 248, N-(amino(5-((dimethylamino)methyl)-3-fluorothiophen-2-yl)(oxo)-λ^6-sulfaneylidene)-2-(6-(difluoromethyl)-2,4-diisopropylpyridin-3-yl)acetamide]
1 to 5 | CC(C)c1cc2c(c(C(C)C)c1CC(=O)N=S(N)(=O)c1sc(CN(C)C)cc1F)COC2 (centres unmarked) [Example 249, N-(amino(5-((dimethylamino)methyl)-3-fluorothiophen-2-yl)(oxo)-λ^6-sulfaneylidene)-2-(4,6-diisopropyl-1,3-dihydroisobenzofuran-5-yl)acetamide]
5 to 30 | CC(C)c1cc(C(F)F)cc(C(C)C)c1CC(=O)N=S(N)(=O)c1ncc(CN(C)C)cc1F (centres unmarked) [Example 250]
0.2 to 1 | CC(C)c1cc(COC2CCCC2)cc(C(C)C)c1CC(=O)N=S(N)(=O)c1cnc(C(C)(O)CO)s1 (centres unmarked) [Example 251, N-(amino(2-(1,2-dihydroxypropan-2-yl)thiazol-5-yl)(oxo)-λ^6-sulfaneylidene)-2-(4-((cyclopentyloxy)methyl)-2,6-diisopropylphenyl)acetamide]
1 to 5 | CC(C)c1cc2c(c(C(C)C)c1CC(=O)N=S(N)(=O)c1cnc(C(C)(O)CO)s1)COC2 (centres unmarked) [Example 252, N-(amino(2-(1,2-dihydroxypropan-2-yl)thiazol-5-yl) (oxo)-λ^6-sulfaneylidene)-2-(4,6-diisopropyl-1,3-dihydroisobenzofuran-5-yl)acetamide]
1 to 5 | CC(C)c1cc(-c2ccc3c(c2)CCOC3)cc(C(C)C)c1CC(=O)N=S(N)(=O)c1cnc(C(C)(O)CO)s1 (centres unmarked) [Example 253, N-(amino(2-(1,2-dihydroxypropan-2-yl)thiazol-5-yl) (oxo)-λ^6-sulfaneylidene)-2-(4-(isochroman-6-yl)-2,6-diisopropylphenyl)acetamide]
5 to 30 | CNCc1ccc(S(N)(=O)=NC(=O)Cc2c(C(C)C)cc(C(F)F)nc2C(C)C)cc1 (centres unmarked) [Example 254, N-(amino(4-((methylamino)methyl)phenyl)(oxo)-λ^6-sulfaneylidene)-2-(6-(difluoromethyl)-2,4-diisopropylpyridin-3-yl)acetamide]
5 to 30 | CNCc1ccc(S(N)(=O)=NC(=O)Cc2c(C(C)C)cc(C(F)F)cc2C(C)C)cc1 (centres unmarked) [Example 255, N-(amino(4-((methylamino)methyl)phenyl)(oxo)-λ^6-sulfaneylidene)-2-(4-(difluoromethyl)-2,6-diisopropylphenyl)acetamide]
5 to 30 | CC(C)c1cc2c(c(C(C)C)c1CC(=O)N=S(N)(=O)c1cnc(C(C)(C)O)s1)COC2=O (centres unmarked) [Example 256, N-(amino(2-(2-hydroxypropan-2-yl)thiazol-5-yl) (oxo)-λ^6-sulfaneylidene)-2-(4,6-diisopropyl-1-oxo-1,3-dihydroisobenzofuran-5-yl)acetamide]
1 to 5 | CC(C)c1cc(C(F)F)cc(C(C)C)c1CC(=O)N=S(N)(=O)c1ccc(CN(C)C)cc1 (centres unmarked) [Example 257, N-(amino(4-((dimethylamino)methyl)phenyl) (oxo)-λ^6-sulfaneylidene)-2-(4-(difluoromethyl)-2,6-diisopropylphenyl)acetamide]
1 to 5 | CC(C)c1cc(C(F)F)nc(C(C)C)c1CC(=O)N=S(N)(=O)c1ccc(CN(C)C)cc1 (centres unmarked) [Example 258, N-(amino(4-((dimethylamino)methyl)phenyl) (oxo)-λ^6-sulfaneylidene)-2-(6-(difluoromethyl)-2,4-diisopropylpyridin-3-yl)acetamide]
